Measured values taken from US20050176760A1, “N-'4-(2-imino-pyrrolidin-1-yl)phenyl!-acetamide and corresponding piperidine derivatives as factor xa inhibitors for the treatment of thrombo-embolic diseases” (Merck Patent GmbH, priority 2002, published 2005).

How the values were obtained:
FXa = FXa (Homo sapiens, UniProt P00742); assay: Factor Xa inhibition (FXa-IC50); assay type: biochemical; details: Table 1, pharmacological data, 'Affinity to receptors'
Source text: The inhibition of factor Xa by the compounds according to the invention and the measurement of the anticoagulant and antithrombotic activity can be determined by conventional in-vitro or in-vivo methods. A suitable method is described, for example, by J. Hauptmann et al. in Thrombosis and Haemostasis 1990, 63, 220-223.
The inhibition of factor Xa can be measured, for example by the method of T. Hara et al. in Thromb. Haemostas. 1994, 71, 314-319.

TF/FVIIa = TF/FVIIa (Homo sapiens, UniProt P08709); assay: TF/factor VIIa inhibition (TF/FVIIa-IC50); assay type: biochemical; details: Table 1, pharmacological data, 'Affinity to receptors'
Source text: The inhibition of factor Vila by the compounds according to the invention and the measurement of the anticoagulant and antithrombotic activity can be determined by conventional in-vitro or in-vivo methods. A conventional method for the measurement of the inhibition of factor VIIa is described, for example, by H. F. Ronning et al. in Thrombosis Research 1996, 84, 73-81.

FXa, sequence (P00742 235-488 limits assumed): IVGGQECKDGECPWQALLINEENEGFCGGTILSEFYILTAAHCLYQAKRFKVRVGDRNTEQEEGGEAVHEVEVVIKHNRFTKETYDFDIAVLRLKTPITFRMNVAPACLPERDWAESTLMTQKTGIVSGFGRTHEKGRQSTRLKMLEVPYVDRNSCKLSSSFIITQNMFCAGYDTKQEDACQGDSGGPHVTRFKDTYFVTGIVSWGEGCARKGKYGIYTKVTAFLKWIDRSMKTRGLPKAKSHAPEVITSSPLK
FXa, sequence (P00742 41-179 limits assumed): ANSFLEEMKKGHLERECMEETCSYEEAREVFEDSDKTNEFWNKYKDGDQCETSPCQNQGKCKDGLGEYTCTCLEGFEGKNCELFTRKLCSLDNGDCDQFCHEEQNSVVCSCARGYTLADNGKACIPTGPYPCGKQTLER
TF/FVIIa, sequence (P08709 213-466 limits assumed): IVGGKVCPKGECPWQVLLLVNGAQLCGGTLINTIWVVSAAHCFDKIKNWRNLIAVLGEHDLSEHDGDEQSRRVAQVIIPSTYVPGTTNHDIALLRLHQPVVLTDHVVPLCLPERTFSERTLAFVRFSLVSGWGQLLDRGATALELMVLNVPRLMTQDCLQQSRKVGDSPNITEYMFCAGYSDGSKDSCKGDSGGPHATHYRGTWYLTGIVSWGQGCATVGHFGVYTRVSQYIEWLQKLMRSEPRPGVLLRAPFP
TF/FVIIa, sequence (P08709 61-212 limits assumed): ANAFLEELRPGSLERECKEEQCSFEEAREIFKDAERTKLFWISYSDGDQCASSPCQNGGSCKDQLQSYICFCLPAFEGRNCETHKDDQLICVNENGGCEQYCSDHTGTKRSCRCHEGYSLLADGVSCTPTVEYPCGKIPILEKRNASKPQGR
TF/FVIIa, sequence (P13726 33-295 partner): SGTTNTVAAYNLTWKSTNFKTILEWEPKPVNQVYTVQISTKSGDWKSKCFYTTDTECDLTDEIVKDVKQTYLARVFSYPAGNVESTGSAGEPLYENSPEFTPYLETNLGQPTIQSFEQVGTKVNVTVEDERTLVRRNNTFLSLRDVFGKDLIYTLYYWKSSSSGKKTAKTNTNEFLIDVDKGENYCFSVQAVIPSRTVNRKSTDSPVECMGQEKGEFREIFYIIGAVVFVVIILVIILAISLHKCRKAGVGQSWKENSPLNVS

| IC50 (FXa) | IC50 (TF/FVIIa) | Compound |
| --- | --- | --- |
| 220 nM | 290 nM | NCc1cccc(NC(C(=O)Nc2ccc(N3CCCC3=NO)c(Cl)c2)c2ccccc2)c1 (racemic) [AA, (R, S)-2-(3-aminomethylphenylamino)-N-[3-chloro-4-(2-hydroxyiminopyrrolidin-1-yl)phenyl]-2-phenylacetamide] |
| 58 nM | 99 nM | N=C1CCCN1c1ccc(NC(=O)C(Nc2cccc(CN)c2)c2ccccc2)cc1Cl (racemic) [AB, (R, S)-2-(3-aminomethylphenylamino)-N-[3-chloro-4-(2-iminopyrrolidin-1-yl)phenyl]-2-phenylacetamide] |
| 680 nM | 490 nM | CON=C1CCCCN1c1ccc(NC(=O)[C@H](CC(C)C)Oc2ccc3ccnc(N)c3c2)cc1 (single isomer, unassigned) [BA] |
| 2700 nM | 2000 nM | CC(C)C[C@H](Oc1ccc2ccnc(N)c2c1)C(=O)Nc1ccc(N2CCCCC2=N)cc1 [BB, (S)-2-(1-aminoisoquinolin-7-yloxy)-N-[4-(2-iminopiperidin-1-yl)phenyl]-4-methylvaleramide] |
| 66 nM | 130 nM | Cc1cc(NC(=O)C(Nc2cccc(CN)c2)c2ccccc2Cl)ccc1N1CCCC1=NCCN(C)C (stereo not shown) [DA, 2-(3-aminomethylphenylamino)-N-[3-methyl-4-(2-(2-dimethylaminoethylimino)pyrrolidin-1-yl)phenyl]-2-(2-chloro)phenyl-acetamide] |
